Reference: PMC12221116, “Novel Quinazolinones Active against Multidrug‐Resistant Mycobacterium Tuberculosis: Synthesis, Antimicrobial Evaluation, and in Silico Exploration of Penicillin‐Binding Protein 1A as a Potential Target” (Chemmedchem, 2025)
≈ marks a conversion by molar mass, not a printed value. Like-named read-outs stand apart in the source and are kept apart here.

Columns and labels:
[1] = tested on: Mtb H37Rv; assay: Microplate Alamar Blue assay, MIC; type: cell-based, Mycobacterium tuberculosis; settings: for MIC: Mycobacterium tuberculosis, H37RV
[2] = tested on: Mtb H37Ra; assay: Microdilution broth resazurin assay, MIC; type: cell-based, Mycobacterium tuberculosis
[3] = tested on: M. kansasii; assay: Microplate Alamar Blue assay, MIC; type: cell-based, Mycobacterium kansasii; settings: for MIC: Mycobacterium kansasii, read-out: Antimycobacterial Activity MIC M. kans.
[4] = tested on: M. avium; assay: Microdilution broth resazurin assay, MIC; type: cell-based, Mycobacterium avium
[5] = tested on: M. smegmatis; assay: Microdilution broth resazurin assay, MIC; type: cell-based, Mycolicibacterium smegmatis
[6] = tested on: M. aurum; assay: Microdilution broth resazurin assay, MIC; type: cell-based, Mycolicibacterium aurum
[7] = Microplate Alamar Blue assay, read-out: Antimycobacterial Activity MIC Mtb H37Rv
[8] = Mycobacterium tuberculosis, H37RA; read-out: Antimycobacterial Activity MIC Mtb H37Ra
[9] = Mycobacterium avium, read-out: Antimycobacterial Activity MIC M. avium
[10] = Mycolicibacterium smegmatis, read-out: Antimycobacterial Activity MIC M. smeg.
[11] = Mycolicibacterium aurum, read-out: Antimycobacterial Activity MIC M. aurum
[12] = Table S5 matching pairs series A and B

Compound	MIC [1, 7] [µg/mL]	MIC [2, 8] [µg/mL]	MIC [3] [µg/mL]	MIC [4, 9] [µg/mL]	MIC [5, 10] [µg/mL]	MIC [6, 11] [µg/mL]	further results
Cc1nc2cc(Cl)ccc2c(=O)n1/N=C/c1ccccn1 [Compound 29]	> 25	≥ 31.2	> 25	≥ 31.2	≥ 31.2	≥ 31.2	–
COc1ccc(Cn2c(C)nc3ccccc3c2=O)c(OC)c1 [Compound 1]	–	–	–	–	–	–	Antimycobacterial Activity MIC Mtb H37Rv ([1]; Microplate Alamar Blue assay): >100 µg/mL; Antimycobacterial Activity MIC Mtb H37Ra [2]: ≥500 µg/mL; Antimycobacterial Activity MIC Mtb H37Ra [2, 12]: ≥ 500 µg/mL; Antimycobacterial Activity MIC M. kans. [3]: >100 µg/mL; Antimycobacterial Activity MIC M. avium [4]: ≥500 µg/mL; Antimycobacterial Activity MIC M. avium [4, 12]: ≥ 500 µg/mL; Antimycobacterial Activity MIC M. smeg. [5]: ≥500 µg/mL; Antimycobacterial Activity MIC M. smeg. [5, 12]: ≥ 500 µg/mL; Antimycobacterial Activity MIC M. aurum [6]: ≥500 µg/mL; Antimycobacterial Activity MIC M. aurum [6, 12]: ≥ 500 µg/mL
Cc1nc2cc(Cl)ccc2c(=O)n1/N=C/c1ccccc1F [Compound 42]	> 25	≥ 31.2	> 25	≥ 31.2	≥ 31.2	≥ 31.2	–
Cc1nc2cc(Cl)ccc2c(=O)n1/N=C/C=C/c1ccccc1 [Compound 41]	> 25	≥ 31.2	> 25	≥ 31.2	≥ 31.2	≥ 31.2	–
Cc1nc2ccccc2c(=O)n1Cc1ccc(C(F)(F)F)cc1 [Compound 7]	–	–	–	–	–	–	Antimycobacterial Activity MIC Mtb H37Rv ([1]; Microplate Alamar Blue assay): >100 µg/mL; Antimycobacterial Activity MIC Mtb H37Ra [2]: 62.5 µg/mL; Antimycobacterial Activity MIC Mtb H37Ra [2, 12]: 62.5 µg/mL; Antimycobacterial Activity MIC M. kans. [3]: >100 µg/mL; Antimycobacterial Activity MIC M. avium [4]: 125 µg/mL; Antimycobacterial Activity MIC M. avium [4, 12]: 125 µg/mL; Antimycobacterial Activity MIC M. smeg. [5]: 250 µg/mL; Antimycobacterial Activity MIC M. smeg. [5, 12]: 250 µg/mL; Antimycobacterial Activity MIC M. aurum [6]: 125 µg/mL; Antimycobacterial Activity MIC M. aurum [6, 12]: 125 µg/mL
Cc1nc2cc(Cl)ccc2c(=O)n1/N=C/c1ccc([N+](=O)[O-])cc1 [Compound 28]	> 25	≥ 31.2	> 25	≥ 31.2	≥ 31.2	≥ 31.2	–
Cc1ccc(/C=N/n2c(C)nc3cc(Cl)ccc3c2=O)cc1 [Compound 48]	> 25	≥ 31.2	> 25	≥ 31.2	≥ 31.2	≥ 31.2	–
Cc1cccc(/C=N/n2c(C)nc3cc(Cl)ccc3c2=O)c1 [Compound 47]	> 25	≥ 31.2	> 25	≥ 31.2	≥ 31.2	≥ 31.2	–
Cc1nc2cc(Cl)ccc2c(=O)n1Cc1ccc(O)cc1 [Compound 14]	> 100	62.5 (≈ 208 µM)	> 100	62.5 (≈ 208 µM)	62.5 (≈ 208 µM)	62.5 (≈ 208 µM)	–
Cc1nc2cc(Cl)ccc2c(=O)n1Cc1ccc(C(F)(F)F)cc1 [Compound 22]	> 100	–	25 (≈ 70.9 µM)	–	–	–	MIC ([1]; read-out: Antimycobacterial Activity MIC Mtb H37Rv, Table S5 matching pairs series A and B): > 100 µg/mL; Antimycobacterial Activity MIC Mtb H37Ra [2]: 31.25 µg/mL; MIC ([2]; Mycobacterium tuberculosis, H37RA, read-out: Antimycobacterial Activity MIC Mtb H37Ra): 31.2 µg/mL (≈ 88.6 µM); Antimycobacterial Activity MIC M. kans. [3, 12]: 25 µg/mL; MIC ([4]; Mycobacterium avium; read-out: Antimycobacterial Activity MIC M. avium): ≥ 500 µg/mL; Antimycobacterial Activity MIC M. avium [4, 12]: ≥ 500 µg/mL; MIC ([5]; Mycolicibacterium smegmatis; read-out: Antimycobacterial Activity MIC M. smeg.): ≥ 500 µg/mL; Antimycobacterial Activity MIC M. smeg. [5, 12]: ≥ 500 µg/mL; MIC ([6]; Mycolicibacterium aurum; read-out: Antimycobacterial Activity MIC M. aurum): ≥ 500 µg/mL; Antimycobacterial Activity MIC M. aurum [6, 12]: ≥ 500 µg/mL
COc1cc(/C=N/n2c(C)nc3cc(Cl)ccc3c2=O)ccc1O [Compound 34]	> 100	≥ 62.5	> 100	≥ 62.5	≥ 62.5	≥ 62.5	–
Cc1nc2cc(Cl)ccc2c(=O)n1/N=C/c1ccc(Cl)cc1 [Compound 51]	> 25	≥ 15.6	> 25	≥ 15.6	≥ 15.6	≥ 15.6	–
